From US20180237449A1, “FUMAGILLOL SPIROCYCLIC COMPOUNDS AND FUSED BICYCLIC COMPOUNDS AND METHODS OF MAKING AND USING SAME” (Zafgen, Inc., priority 2015, published 2018) come the findings set out here.

The term EC50 denotes the concentration giving half of the maximal effect.

Counter-ions that a name gives are not always drawn.

The subject of data set [1] is pregnant Sprague Dawley rats. The data set can be described thus: Rat embryofetal development study. To be noted: 6 mpk sc once every three days, Gestation Days 6-18. The data set is classed as in vivo. Here is the method:
The objective of this study design was to evaluate the potential effects of disclosed compounds on embryo/fetal development when given subcutaneously to pregnant rats once every three days during the critical period of organogenesis (Gestation Days 6-18). Female, Sprague Dawley rats, approximately 10 weeks of age, time bred, were ordered from a certified vendor and housed individually housed in stainless steel cages suspended over flush pans, on a 12-hour light-dark cycle (0700-1900) at 20-26° C. and 30-70% humidity. Rats were fed a standard rodent chow and provided water ad libitum. Rats were received and housed in the facility for a period of approximately 1 to 2 days.
Compounds were formulated using 100% DMSO mixed in Sterile Water for Injection, resulting in 2% DMSO solution in water. If necessary, due to limited solubility of a test article, a higher percentage of DMSO solution in water was used. Groups of 8 mated and presumed pregnant female rats were given subcutaneous doses of vehicle or test article, once every three days, beginning on Gestation Day 6 and ending on Gestation Day 18 (Days 6, 9, 12, 15, and 18), maintained two more days, and then euthanized and necropsied on Gestation Day 20. Body weights was recorded for all animals on Gestation Days 5 (purpose of randomization), 6, 9, 12, 15, 18, and 20 (scheduled euthanasia). Food consumption by weight was recorded on Gestation Days 6, 9, 12, 15, 18, and 20 (scheduled termination).
At necropsy, the dams were examined visually for external abnormalities including palpable masses. The abdominal, thoracic, and cranial cavities and their contents were examined for abnormalities and findings will be recorded. The reproductive tract were examined to record the number of ovarian corpora lutea, the number and location of uterine implantation sites noting the position of the cervix, and the number of early resorptions, late resorptions, live fetuses, and dead fetuses. For dead fetuses and late resorptions, crown-to-rump length and weight were recorded, if possible, and the fetus was discarded. For viable fetuses, weight, sex, and grossly visible external abnormalities were recorded.

Data set [2] relates to human fibrosarcoma cell line HT-1080. The data set can be described thus: HT-1080 cell assay (CellTiter-Glo, 72 hours). The data set is classed as cell-based. To be noted: 72 hours incubation. Here is the method:
The human fibrosarcoma cell line HT-1080 were grown to almost complete confluence in T75 tissue culture flasks in preparation for the experiment. The cells were trypsinised and re-suspended in complete medium using DMEM plus 9% FBS including penicillin/streptomycin supplements. 500 cells in a total volume of 25 μl were seeded into black walled 384 well plates and returned to a CO2 incubator over-night. Compounds and standards were prepared at 333.3× actual test concentration in neat DMSO. 10 point dose response curves of test compounds were generated by 1:3 serial dilutions, 2 μl of DMSO stock was transferred to 109 μl complete medium. This was further diluted 1:6 in complete medium, with 5 μl of the resulting solution added to the incubated 384 well plate. […] For experimental blanks at the start of the experiment, CellTiter-Glo was added to a satellite plate of cells (identical to the experimental plate), when adding compounds on Day 1. The average of these wells is used as the blanks in the calculation template. Following 72 hours incubation with compounds and standard the plate was removed from the incubator and allowed to equilibrate at room temperature for at least 30 minutes. CellTiter-Glo was thawed and subsequently 30 μl added to columns 2-23. The plate was covered with a clear Perkin Elmer Topseal and placed on a plate shaker for 10-20 mins to aid homogenous mixing. Luminescence per well was determined using an EnVision 2104 Multilabel Reader (PerkinElmer) or other suitable reader. The compound blank value recorded on Day 1 is subtracted from all other data. Data is expressed as % inhibition of mean DMSO control response and the EC50 is calculated as 50% maximum response. The EC50 values are determined from a sigmoidal 4 parameter curve fit using XLfit in conjunction with Activity Base (IDBS; Guildford, Surrey, UK). The bottom of the curve is fixed to 0% inhibition.
In general terms: In ATP-based viability assays light output follows the ATP content of the culture.

Data set [3] deals with Diet Induced Obese (DIO) C57BL/6 mice. Description: 10 day DIO mouse model, weight loss vs. vehicle. To be noted: 0.3 mpk sc once a day for 10 days. The data set is classed as in vivo. The source says:
The objective of this study design was to investigate the efficacy of disclosed compounds in a 10 day DIO mouse model. Effects on body weight, food intake, hematology and blood chemistry were the primary readouts of this study design. Male, Diet Induced Obese (DIO) C57BL/6 mice, 19-21 weeks of age (13-15 weeks on high fat diet) were ordered from a certified vendor and upon receipt were housed on irradiated corncob bedding in micro-isolator cages on a 12-hour light-dark cycle (0700-1900) at 68-74° F. and 30-70% humidity. Mice were fed Research Diets D12492 (60% Kcal fat, 20% Kcal carbohydrate and 20% protein) and provided water ad libitum. DIO mice were received and housed in the facility for approximately two weeks prior to the start of test article administration. On Day −4 or −3, mice were randomized into study groups based on body weight and body weights were continued to be recorded daily for the duration of the study. Daily food intake was assessed starting on Study Day −2 by weighing of the food with hopper together to avoid loss of food in transfer.
Compounds were formulated into a 100% DMSO stock (at 9 mg/mL) prior to the start, and further diluted into the target working concentration using the vehicle of 10% DMSO in water. Prior to test article administration, starting on Day −3 a dosing acclimation occurred with all animals receiving a subcutaneous injection of vehicle (10% DMSO) only for 3 days. Starting on Day 1, test compounds or vehicle were administered based on individual body weight, subcutaneously, once a day for 10 days. All mice were sacrificed on Day 11, 24 hours following the final dosing on Day 10. After sacrifice, whole blood was collected and analyzed for hematology and blood chemistry parameters.
Compounds were tested for weight loss vs. vehicle at 0.3 and 1.0 mpk sc (mg per kg animal weight delivered subcutaneously), and the results are shown in Table 2 below.

In another data set the test system is DIO Sprague Dawley rats. Description: 11 day rat DIO model, weight loss vs. vehicle. The data set is classed as in vivo. Conditions: 0.3 mpk sc once a day for 11 days. The source says: The objective of this study design is to investigate the efficacy of disclosed compounds in an 11 day rat DIO model used to screen compounds for pharmacologic efficacy on endpoints related to obesity and metabolism. Effects on body weight, food intake, hematology and blood chemistries were the primary readouts of this study design. Male Sprague Dawley rats, approximately 8 weeks of age, were ordered from a certified vendor and housed on irradiated corncob bedding in micro-isolator cages, on a 12-hour light-dark cycle (0700-1900) at 68-74° F. and 30-70% humidity. Rats were fed Research Diets D12451 (45% High Fat) and provided water ad libitum. Rats were received and housed in the facility for at least two or three weeks prior to start of test article administration. On Day −4 or −3, rats were randomized into study groups based on body weight and body weights were continued to be recorded daily for the duration of the study. Daily food intake was assessed starting on Study Day −2 by weighing the hopper including the food to avoid loss of food in transfer.
Compounds were formulated into a 100% DMSO stock (at 9 mg/mL) prior to the start, and further diluted into the target working concentration using the vehicle of 10% DMSO in water. […] After sacrifice, whole blood was collected and analyzed for hematology and blood chemistry parameters. […]

Take `CO[C@@H]1[C@H](OC(=O)N2CC3(COC3)C2)CC[C@]2(CO2)[C@H]1[C@@]1(C)O[C@@H]1CC=C(C)C` [Example 2, (3R,4S,5S,6R)-5-methoxy-4-((2R,3R)-2-methyl-3-(3-methylbut-2-enyl)oxiran-2-yl)-1-oxaspiro[2.5]octan-6-yl 2-oxa-6-azaspiro[3.3]heptane-6-carboxylate]: the “Rat Embryofetal @6 mpk” value in data set [1] was “Positive”. The compound also showed an EC50 in data set [2] of under 0.5 nM. For the compound `CO[C@@H]1[C@H](OC(=O)N2CCC3(CC2)COC3)CC[C@]2(CO2)[C@H]1[C@@]1(C)O[C@@H]1CC=C(C)C` [Example 5, (3R,4S,5S,6R)-5-methoxy-4-((2R,3R)-2-methyl-3-(3-methylbut-2-enyl)oxiran-2-yl)-1-oxaspiro[2.5]octan-6-yl 2-oxa-7-azaspiro[3.5]nonane-7-carboxylate], in data set [3], the “weight loss vs. vehicle, Mouse @ 0.3 mpk sc (%)” value is given as 16.7%. Besides, the “weight loss vs. vehicle, Rat @ 0.3 mpk sc (%)” value in the data set on DIO Sprague Dawley rats was determined as 6.6%. With `CO[C@@H]1[C@H](OC(=O)N2CC3(CCN(CC(F)F)CC3)C2)CC[C@]2(CO2)[C@H]1[C@@]1(C)O[C@@H]1CC=C(C)C` [Example 9, (3R,4S,5S,6R)-5-methoxy-4-((2R,3R)-2-methyl-3-(3-methylbut-2-enyl)oxiran-2-yl)-1-oxaspiro[2.5]octan-6-yl 7-(2,2-difluoroethyl)-2,7-diazaspiro[3.5]nonane-2-carboxylate formate], the “Rat Embryofetal @6 mpk” value in data set [1] is on record as “Positive”. In data set [2], this compound registered an EC50 of under 0.5 nM.

For the compound `CO[C@@H]1[C@H](OC(=O)NC2CC3(CCN(C)C3)C2)CC[C@]2(CO2)[C@H]1[C@@]1(C)O[C@@H]1CC=C(C)C` (stereo partly drawn) [Example 11, (3R,4S,5S,6R)-5-methoxy-4-((2R,3R)-2-methyl-3-(3-methylbut-2-enyl)oxiran-2-yl)-1-oxaspiro[2.5]octan-6-yl 6-methyl-6-azaspiro[3.4]octan-2-ylcarbamate formate], in data set [3], the “weight loss vs. vehicle, Mouse @ 0.3 mpk sc (%)” value worked out at 6%.

On to `CO[C@@H]1[C@H](OC(=O)N2CC3C(C2)C3(F)F)CC[C@]2(CO2)[C@H]1[C@@]1(C)O[C@@H]1CC=C(C)C` (stereo partly drawn) [Example 22, (3R,4S,5S,6R)-5-methoxy-4-((2R,3R)-2-methyl-3-(3-methylbut-2-enyl)oxiran-2-yl)-1-oxaspiro[2.5]octan-6-yl 6,6-difluoro-3-azabicyclo[3.1.0]hexane-3-carboxylate], for which, in data set [1], the “Rat Embryofetal @6 mpk” value was “Negative”. Besides, the EC50 in data set [2] was under 0.5 nM.

As to `CO[C@@H]1[C@H](OC(=O)N2CC3(C2)CS(=O)(=O)C3)CC[C@]2(CO2)[C@H]1[C@@]1(C)O[C@@H]1CC=C(C)C` [Example 23, (3R,4S,5S,6R)-5-methoxy-4-((2R,3R)-2-methyl-3-(3-methylbut-2-enyl)oxiran-2-yl)-1-oxaspiro[2.5]octan-6-yl 2-thia-6-azaspiro[3.3]heptane 2,2-dioxide-6-carboxylate], the “weight loss vs. vehicle, Mouse @ 0.3 mpk sc (%)” value in data set [3] came to 2%.

Regarding `CO[C@@H]1[C@H](OC(=O)N2CC3(CNC(=O)C3)C2)CC[C@]2(CO2)[C@H]1[C@@]1(C)O[C@@H]1CC=C(C)C` [Example 25, (3R,4S,5S,6R)-5-methoxy-4-((2R,3R)-2-methyl-3-(3-methylbut-2-enyl)oxiran-2-yl)-1-oxaspiro[2.5]octan-6-yl 7-oxo-2,6-diazaspiro[3.4]octane-2-carboxylate], the “weight loss vs. vehicle, Mouse @ 0.3 mpk sc (%)” value in data set [3] amounted to 2%. In the case of `CO[C@@H]1[C@H](OC(=O)N2CCC3(CCOCC3)C2)CC[C@]2(CO2)[C@H]1[C@@]1(C)O[C@@H]1CC=C(C)C` [Example 27, (3R,4S,5S,6R)-5-methoxy-4-((2R,3R)-2-methyl-3-(3-methylbut-2-enyl)oxiran-2-yl)-1-oxaspiro[2.5]octan-6-yl 8-oxa-2-azaspiro[4.5]decane-2-carboxylate], the “Rat Embryofetal @6 mpk” value in data set [1] was “Positive”. Moreover, the EC50 in data set [2] is under 0.5 nM. As for `CO[C@@H]1[C@H](OC(=O)N2CCC3(CCN(C)CC3)CC2)CC[C@]2(CO2)[C@H]1[C@@]1(C)O[C@@H]1CC=C(C)C` [Example 28, (3R,4S,5S,6R)-5-methoxy-4-((2R,3R)-2-methyl-3-(3-methylbut-2-enyl)oxiran-2-yl)-1-oxaspiro[2.5]octan-6-yl 9-methyl-3,9-diazaspiro[5.5]undecane-3-carboxylate], the “weight loss vs. vehicle, Mouse @ 0.3 mpk sc (%)” value in data set [3] was found to be 8%. Take `CO[C@@H]1[C@H](OC(=O)N2C[C@@H]3[C@H](C2)[C@H]3C(=O)NCCN2CCOCC2)CC[C@]2(CO2)[C@H]1[C@@]1(C)O[C@@H]1CC=C(C)C` [Example 37, (1R,5S,6R)-(3R,4S,5S,6R)-5-methoxy-4-((2R,3R)-2-methyl-3-(3-methylbut-2-en-1-yl)oxiran-2-yl)-1-oxaspiro[2.5]octan-6-yl 6-((2-morpholinoethyl)carbamoyl)-3-azabicyclo[3.1.0]hexane-3-carboxylate]: in data set [3], the “weight loss vs. vehicle, Mouse @ 0.3 mpk sc (%)” value is recorded as 4.3%. For the compound `CO[C@@H]1[C@H](OC(=O)/C=C/c2ccc(OCCN(C)C)cc2)CC[C@]2(CO2)[C@H]1[C@@]1(C)O[C@@H]1CC=C(C)C` [compound A, [(3R,6R,7S,8S)-7-methoxy-8-[(2R,3R)-2-methyl-3-(3-methylbut-2-enyl)oxiran-2-yl]-2-oxaspiro[2.5]octan-6-yl] (E)-3-[4-[2-(dimethylamino)ethoxy]phenyl]prop-2-enoate, reference compound], the “Rat Embryofetal @6 mpk” value in data set [1] is “Positive”.
